Measurements taken from patent US20260232693A1, “IMPROVING GLYMPHATIC-LYMPHATIC EFFLUX” (UNIVERSITY OF ROCHESTER, priority 2023, published 2026).
“Also recorded” adds a separate entry of the source.

Key:
Type in all cases: in vivo, C57BL/6 mice
[1] = system: cervical lymphatic vessels (cLVs); assay: 2P-OPTIC two-photon imaging with particle tracking of cervical lymphatic vessel contraction and flow, before and after topical PGF2α; conditions: for decrease in retrograde fraction / ejection rate / increase in ejection fraction / increase in ejection volume / median vessel diameter: after vs before PGF2α; for retrograde fraction after PGF2α / ejection fraction after PGF2α: mean±SEM; for increase in intrinsic pulsation rate: after vs before topical PGF2α 5 μM
[2] = Measurement of vital signs (heart and respiratory rate) before and after PGF2α; conditions: topical PGF2α; young and old mice
Procedure: Heart and respiratory rate were measured using a small animal physiological monitoring 494 device (Harvard Apparatus) which acquired measurements at 1 kHz and 250 Hz, respectively. The signals were digitized and recorded with a DigiData 1550A digitizer and AxoScope software 496 (Axon Instruments).

[3] = system: cervical lymphatic vessels (cLVs); assay: Epi-fluorescent macroscopic imaging of OVA-647 CSF tracer drainage in cervical lymphatic vessels; conditions: 60 min imaging, 5 μM PGF2α topical
Procedure: Ovalbumin-conjugated to Alexa Fluor 647 (OVA-647, 0.5% w/v, 45 kDa, Invitrogen, 10 μL, 2 μL/min) was injected into the cisterna magna through a 30G needle connected to PE-10 tubing using a syringe pump (Harvard Apparatus). Cervical lymphatic vessels were surgically exposed as before and imaged using a fluorescent macroscope (MVX10, Olympus) with a PRIOR Lumen 1600-LED light source and ORCA Flash 4.0 digital camera (Hamamatsu) using Metamorph software. The images at 20× magnification from the far-red emission channel (647 nm) were collected at 1 min intervals for 60 min following the start of the injection. Exposure time was kept constant across all the experimental groups. One microliter PBS with or without 5 μM PGF2a was applied directly onto the cervical lymph vessel simultaneously with the injection of OVA-647 into cisterna magna.

[4] = system: cervical lymph nodes (cLNs); assay: Ex vivo cervical lymph node imaging of OVA-647 accumulation; conditions: 90 min
Procedure: One microliter PBS with or without 5 μM PGF2a was applied directly onto the cervical lymph vessel simultaneously with the injection of OVA-647 (0.5% w/v, 45 kDa, Invitrogen, 10 μL, 2 μL/min) into cisterna magna for 90 min. Then the superficial and deep cervical lymph nodes were dissected and put on the microscope slices (Fisherbrand). The lymph nodes were placed under the macroscope (MVX10 Research Macro Zoom Microscope, 633 Olympus). The images were acquired in the far-red emission channel (647 nm).

[5] = system: superficial cervical lymph vessels; assay: DB53 brain clearance assay (intrastriatal injection, brain retention and femoral vein signal)
Procedure: Clearance assay was conducted using our published method (Pla, V. et al. A real-time in vivo clearance assay for quantification of glymphatic efflux. Cell Rep 40, 111320 (2022)). Briefly, anesthetized mice were mounted in a stereotactic apparatus and a small burr hole was made (AP+0.6 mm; ML-2.0 mm). A guide cannula (26G, […] SPC, 4.5 mm below pedestal) and dummy cannula ([…], 0.1 mm projection) was placed at DV 3.3 mm. After 48 hr, the dummy cannula was replaced by the inner cannula (33G, […]/SP, 0.1 mm projection), connected by a PE10 tubing to a 10 μL Hamilton syringe containing 4% (w/v) DB53 in sterile aCSF. The left femoral vein was exposed via skin resection and was placed under a fluorescent macroscope (microscope: MVX10, Olympus; light: PRIOR Lumen 1600-LED; camera: Flash 4.0 digital, Hamamatsu). The pump infusion (1 μL, […]) was triggered simultaneously with the imaging over the vein, once every 15 min for 2 h for the intraparenchymal delivery. […] At the end of the experiment, animals were decapitated, and their brains were harvested for postmortem analysis. For quantitative image analysis for femoral vein and ex vivo in the brain is the same as described in Pla, V. et al. A real-time in vivo clearance assay for quantification of glymphatic efflux. Cell Rep 40, 111320 (2022).

CCCCC[C@H](O)/C=C/[C@@H]1[C@@H](C/C=C\CCCC(=O)O)[C@@H](O)C[C@H]1O [PGF2α, prostaglandin F2α]
decrease in retrograde fraction ([1]; 2-month-old mice): 64.2%
ejection rate ([1]; 2-month-old mice): no change
increase in ejection fraction ([1]; 2-month-old mice): 7.0%
increase in ejection volume ([1]; 2-month-old mice): 148.6%
median vessel diameter ([1]; 2-month-old mice): decreased
retrograde fraction after PGF2α ([1]; 2-month-old mice, before: 8.1±1.0): 2.9±0.6%
ejection fraction after PGF2α ([1]; 2-month-old mice, before: 90.8±0.8): 97.1±0.6%
increase in CSF drainage (number of microsphere particles detected in cLVs) ([1]; 2-month-old mice, intracisternal fluorescent microspheres): 35.4%
decrease in retrograde fraction ([1]; 22-month-old mice): 83.6%
ejection rate ([1]; 22-month-old mice): no change
increase in ejection fraction ([1]; 22-month-old mice): 31.7%
increase in ejection volume ([1]; 22-month-old mice): 181.4%
median vessel diameter ([1]; 22-month-old mice): decreased
retrograde fraction after PGF2α ([1]; 22-month-old mice, before: 27.5±2.1): 4.5±0.4%
ejection fraction after PGF2α ([1]; 22-month-old mice, before: 72.5±2.1): 95.5±0.5%
solute arriving to the cLN (particle count) compared to untreated aged controls ([1]; aged mice, intracisternal fluorescent microspheres): ~4 times
increase in intrinsic pulsation rate ([1]; old (22-month-old) mice): 152.0%
increase in flow speeds ([1]; old mice, after vs before topical PGF2α): 3.5 fold
contraction amplitude (Δd) ([1]; vs before PGF2α): increased
increase in intrinsic pulsation rate ([1]; young (2-month-old) mice): 50.7%
increase in downstream speed ([1]; young mice, after vs before topical PGF2α): 103.1%
respiratory rate [2]: did not induce changes; also recorded: unaffected
CSF drainage of OVA647 tracer (fluorescence intensity in cLVs) ([3]; old (22-month-old) mice): promoted robust CSF drainage
CSF drainage of OVA647 tracer (fluorescence intensity in cLVs) ([3]; young mice): promoted robust CSF drainage
accumulation of OVA647 in cLNs, ex vivo ([4]; 2-month-old mice): significantly larger accumulation
accumulation of OVA647 in cLNs, ex vivo ([4]; 22-month-old mice): significantly larger accumulation
DB53 signal in the femoral vein ([5]; 75 min, control 4.6±0.8): 8.3±1.3
DB53 signal in the femoral vein ([5]; 90 min, control 5.5±0.6): 10.3±1.5
DB53 signal in the femoral vein ([5]; 105 min, control 6.6±0.7): 10.8±1.4
DB53 signal in the femoral vein ([5]; 120 min, control 6.8±0.7): 11.45±8.3
DB53 signal in the femoral vein (brain clearance to plasma), overall vs control ([5]; 2 h imaging): dramatically increased
DB53 retained in the brain (% area of DB53 fluorescence) ([5]; after intrastriatal DB53, control 10.1±1.3, mean±SEM): 6.3±0.9 % area
